Results published in PMC5971337, “Development of an Ultra-High Performance Liquid Chromatography Method for Simultaneous Determination of Six Active Compounds in Fructus aurantii and Rat Plasma and Its Application to a Comparative Pharmacokinetic Study in Rats Administered with Different Doses” (Journal of Analytical Methods in Chemistry, 2018).
Where two headings read alike, the source gives them in different places.

How the values were obtained:
[1] = Pharmacokinetic study in rats after oral administration of FA decoction; assay type: in vivo, Sprague-Dawley rats; settings: for AUC(0-t) / Cmax / Tmax / MRT last / half-life: male, Sprague-Dawley, rat plasma, n=8; for AUC(0-t): last dose day 8, plasma treated with β-glucuronidase; for MRT last: read-out: MRT(0–t); for half-life: read-out: t 1/2z (converted)
Protocol: 16 male Sprague-Dawley (SD) rats weighing 200 ± 20 g were from experimental animal center of Central South University and fostered in an environmentally controlled room (temperature: 22–26°C, humidity: 40–60%, and 12 h dark-light cycle) for 1 week before the experiment. All experimental procedures were implemented strictly according to the guidelines of the Animal Care and Use Committee, Central South University, China. This research was approved by the Animal Ethics Committee of Central South University. Rats were randomly divided into 2 groups (n=8): low-dose group (15 g/kg FA decoction) and high-dose group (30 g/kg FA decoction). The two groups were given by gavage twice a day for 7 days in succession. At the 7th day of medication, the rats were prohibited feeding for about 12 hours without restriction of water. On day 8, the rats were orally administered for the last time at 8 am, and then plasma samples (0.5 mL) were collected from the caudal vein at 5, 10, 20, 30, 60, 90, 240, 360, 480, and 600 min into heparinized vacuum tubes, followed by centrifugation at 3500 rpm (4°C) for 10 min. Then, the plasmas were obtained and immediately stored at −20°C until analysis. During the experiment, the rats were injected intraperitoneally with physiological saline for maintaining fluid balance.
(§1) Standard stock solutions were prepared by dissolving reference standards in methanol to yield concentrations of 198 µg/mL for meranzin hydrate, 128 µg/mL for naringenin, 273 µg/mL for hesperetin, and 4.56 µg/mL for SMZ. All solutions were stored at 4°C. QC samples were prepared at three concentration levels containing meranzin hydrate (6.5, 206, 3300 ng/mL), naringenin (13.9, 222, 3555 ng/mL), and hesperetin (3.7, 29.5, 236 ng/mL). Plasmas (100 µL) were spiked with β-glucuronidase (5 µL) and acetic acid buffer solution (10 µL), subsequently vortexed for 10 seconds, and incubated for 4 h at 37°C. Then, SMZ (50 µL) and methanol (135 µL) were added, ultrasound was done for 10 min, and centrifugation at 12000 rpm (4°C) for 10 min was performed. The supernatant (50 µL) was transferred, distilled water (50 µL) was added, then ultrasound and centrifugation again. At last, the supernatant of 5 µL was injected into UPLC.
The database was set up with the SPSS 17.0 software package from SPSS Inc., Chicago, Illinois (US). Differences between the two groups were analyzed by one-way analysis of variance. A two-tailed P value of <0.05 was considered statistically significant. The DAS 3.2.8 pharmacokinetic program (Chinese Pharmacological Society) was used to process pharmacokinetic parameters.
The validated method was applied to determine the plasma concentrations of meranzin hydrate, naringenin, and hesperetin in rats after oral administration of FA decoction at a dose of 15 g/kg and 30 g/kg body weight. The mean plasma concentration-time profiles of meranzin hydrate, naringenin, and hesperetin are shown in Figure 4, and the estimated pharmacokinetic parameters are illustrated in Table 5. According to DAS software, the optimal metabolism process of the 3 components in rats could be depicted as a two-compartment pharmacokinetic model.

[2] = Stability of the analytical solution of FA decoction at environmental temperature; assay type: physicochemical; settings: FA decoction 1.7 g/mL
Protocol: The raw herb (200 g) was immersed in distilled water (1 : 8, w/v) for 0.5 h at room temperature and thereafter was boiled for 0.5 h. The filtrate was collected, and the residue was boiled again in distilled water (1 : 6, w/v) for 0.5 h. The filtrates were mixed together, filtered through a 0.45 µm porous filtration membrane, then farther concentrated in the rotary evaporator to a final concentration equivalent to 1.7 g/mL FA, and stored at −20°C until analyzed. In the experiment, FA decoction (100 µL) was precisely measured, 900 µL methanol was added, then ultrasound was done for 5 min, and it was centrifuged at 15000 rpm (4°C) for 10 min; the supernatant liquor (20 µL) was shifted to a 1.5 mL EP tube, methanol-water (780 µL) was added, and ultrasound was performed, and it was centrifuged at 15000 rpm (4°C) for 10 min again. Finally, 5 µL of the supernatant liquor was injected into the apparatus for detection.
The stability of the analytical solution at environmental temperature was studied by detecting sample solution at 0, 2, 4, 8, 12, and 24 h. The RSD values of peak areas were taken for assessment.

[3] = Stability of QC samples in rat plasma (short-term, freeze-thaw, long-term); assay type: in vitro ADME; settings: for Short-term stability, Mean ± SD: room temperature for 4 h; for Freeze-thaw stability, Mean ± SD: three freeze (−20°C) and thaw cycles; for Long-term stability, Mean ± SD: −20°C for 20 days
Protocol: as §1
(5) Stability. QC plasma samples of each concentration at low, medium, and high levels were detected. The freeze and thaw stability were investigated after three freeze (−20°C) and thaw (room temperature) cycles on consecutive days. Long-term stability was studied by storing QC samples at −20°C for 20 days. Short-term stability was assessed by analyzing QC samples kept at room temperature for 4 h.

[4] = high level (spiked 3300.0 / 3555.0 / 236.0 ng/mL)
[5] = low level (spiked 6.5 / 13.9 / 3.7 ng/mL)
[6] = medium level (spiked 206.0 / 222.0 / 29.5 ng/mL)

## O=C1C[C@@H](c2ccc(O)cc2)Oc2cc(O)cc(O)c21 [Naringenin, naringenin]
[1]; oral FA decoction 15 g/kg twice a day for 7 days
  AUC(0-t): 3660 ± 861 ng·h/mL
[1]; oral FA decoction 15 g/kg
  Cmax: 694 ± 208 ng/mL
  Tmax: 1.13 ± 0.35 h
  MRT last: 4.06 ± 0.33 h
  half-life: 8.59 ± 9.25 h
[1]; oral FA decoction 30 g/kg twice a day for 7 days
  AUC(0-t): 11200 ± 1410 ng·h/mL
[1]; oral FA decoction 30 g/kg
  Cmax: 2580 ± 388 ng/mL
  Tmax: 0.81 ± 0.26 h
  MRT last: 3.89 ± 0.21 h
  half-life: 5.67 ± 2.9 h
[1]; rat, oral FA decoction
  AUC(0–t) elevation, 30 g/kg compared with the 15 g/kg group: 3.05 fold
  C max elevation, 30 g/kg compared with the 15 g/kg group: 3.72 fold
[2]; 0h
  Stability in FA decoction, Content: 0.27 mg/mL
[2]; 2h
  Stability in FA decoction, Content: 0.26 mg/mL
[2]; 4h
  Stability in FA decoction, Content: 0.26 mg/mL
[2]; 8h
  Stability in FA decoction, Content: 0.26 mg/mL
[2]; 12h
  Stability in FA decoction, Content: 0.26 mg/mL
[2]; 24h
  Stability in FA decoction, Content: 0.25 mg/mL
[3]; [4]
  Short-term stability, Mean ± SD: 3549.93 ± 455.39 ng/mL
  Freeze-thaw stability, Mean ± SD: 3552.68 ± 409.74 ng/mL
  Long-term stability, Mean ± SD: 3550.10 ± 450.62 ng/mL
[3]; [5]
  Short-term stability, Mean ± SD: 13.03 ± 2.28 ng/mL
  Freeze-thaw stability, Mean ± SD: 13.44 ± 4.79 ng/mL
  Long-term stability, Mean ± SD: 13.32 ± 5.05 ng/mL
[3]; [6]
  Short-term stability, Mean ± SD: 217.05 ± 22.66 ng/mL
  Freeze-thaw stability, Mean ± SD: 219.51 ± 35.50 ng/mL
  Long-term stability, Mean ± SD: 220.06 ± 34.22 ng/mL
